In ChEMBL document CHEMBL2062359, “Pyrimidinopyrimidine inhibitors of ketohexokinase: exploring the ring C2 group that interacts with Asp-27B in the ligand binding pocket” (Bioorg Med Chem Lett, 2012):
One block for each molecule: values may come before it.

Legend:
Ketohexokinase [1] = target: T1, Ketohexokinase (Homo sapiens, UniProt P50053); experiment: Inhibition of KHKC in human HepG2 cells assessed as level of fructose-1-phosphate; type: cell-based
T1 sequence (P50053 whole entry): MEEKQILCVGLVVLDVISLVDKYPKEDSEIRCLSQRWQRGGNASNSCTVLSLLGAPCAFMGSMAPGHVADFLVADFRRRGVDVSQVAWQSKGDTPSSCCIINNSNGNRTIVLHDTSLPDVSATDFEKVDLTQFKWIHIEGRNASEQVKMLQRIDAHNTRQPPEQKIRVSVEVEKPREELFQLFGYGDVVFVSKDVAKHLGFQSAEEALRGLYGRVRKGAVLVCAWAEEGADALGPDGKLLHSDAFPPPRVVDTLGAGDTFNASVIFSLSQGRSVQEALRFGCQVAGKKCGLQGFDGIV

Ketohexokinase [2] = target: T1, Ketohexokinase; experiment: Inhibition of recombinant human hepatic KHKC
[3] = target: Mitogen-activated protein kinase 13 (Homo sapiens, UniProt O15264); experiment: Inhibition of MAPK13 by FRET assay
[4] = target: Ribosomal protein S6 kinase alpha-3 (Homo sapiens, UniProt P51812); experiment: Inhibition of RPS6KA3 by FRET assay
Activin receptor type-1B = Activin receptor type-1B (Homo sapiens, UniProt P36896); experiment: Inhibition of ALK4 by FRET assay
[5] = target: RAC-alpha serine/threonine-protein kinase (Homo sapiens, UniProt P31749); experiment: Inhibition of AKT1 by FRET assay
[6] = target: Protein kinase C theta type (Homo sapiens, UniProt Q04759); experiment: Inhibition of PRKCQ by FRET assay
[7] = target: Tyrosine-protein kinase JAK2 (Homo sapiens, UniProt O60674); experiment: Inhibition of JAK2 by FRET assay
[8] = target: Serine/threonine-protein kinase Chk1 (Homo sapiens, UniProt O14757); experiment: Inhibition of CHEK1 by FRET assay
[9] = target: Cyclin-dependent kinase 1/cyclin B1 (Homo sapiens, UniProt P06493); experiment: Inhibition of CDK1/cyclin B by FRET assay; type: protein-complex assay
Ephrin type-B receptor 1 = Ephrin type-B receptor 1 (Homo sapiens, UniProt P54762); experiment: Inhibition of EPHB1 by FRET assay
[10] = target: Serine/threonine-protein kinase pim-2 (Homo sapiens, UniProt Q9P1W9); experiment: Inhibition of PIM2 by FRET assay
[11] = target: Calcium/calmodulin-dependent protein kinase type 1D (Homo sapiens, UniProt Q8IU85); experiment: Inhibition of CAMK1D by FRET assay
[12] = target: Interleukin-1 receptor-associated kinase 4 (Homo sapiens, UniProt Q9NWZ3); experiment: Inhibition of IRAK4 by FRET assay
[13] = target: Death-associated protein kinase 3 (Homo sapiens, UniProt O43293); experiment: Inhibition of DAPK3 by FRET assay
[14] = target: Tyrosine-protein kinase ABL1 (Homo sapiens, UniProt P00519); experiment: Inhibition of ABL1 by FRET assay
[15] = target: Serine/threonine-protein kinase PLK3 (Homo sapiens, UniProt Q9H4B4); experiment: Inhibition of PLK3 by FRET assay
[16] = target: Serine/threonine-protein kinase Nek2 (Homo sapiens, UniProt P51955); experiment: Inhibition of NEK2 by FRET assay
[17] = target: Glycogen synthase kinase-3 beta (Homo sapiens, UniProt P49841); experiment: Inhibition of GSK3B by FRET assay
[18] = target: High affinity nerve growth factor receptor (Homo sapiens, UniProt P04629); experiment: Inhibition of NTRK1 by FRET assay
[19] = target: cAMP-dependent protein kinase catalytic subunit alpha (Homo sapiens, UniProt P17612); experiment: Inhibition of PRKACA by FRET assay
Aurora kinase A = Aurora kinase A (Homo sapiens, UniProt O14965); experiment: Inhibition of AURKA by FRET assay
[20] = target: Serine/threonine-protein kinase PAK 3 (Homo sapiens, UniProt O75914); experiment: Inhibition of PAK3 by FRET assay
[21] = target: Casein kinase I isoform delta (Homo sapiens, UniProt P48730); experiment: Inhibition of CSNK1D by FRET assay
[22] = target: Rho-associated protein kinase 1 (Homo sapiens, UniProt Q13464); experiment: Inhibition of ROCK1 by FRET assay
[23] = target: AMP-activated protein kinase (AMPK) alpha-1/beta-1/gamma-1 (Homo sapiens, UniProt P54619+Q13131+Q9Y478); experiment: Inhibition of AMPK A1/B1/G1 by FRET assay; type: protein-complex assay
[24] = target: Serine/threonine-protein kinase 26 (Homo sapiens, UniProt Q9P289); experiment: Inhibition of MST4 by FRET assay
[25] = target: Serine/threonine-protein kinase Chk2 (Homo sapiens, UniProt O96017); experiment: Inhibition of CHEK2 by FRET assay

Chain of Tyrosine-protein kinase ABL1 (P00519 whole entry): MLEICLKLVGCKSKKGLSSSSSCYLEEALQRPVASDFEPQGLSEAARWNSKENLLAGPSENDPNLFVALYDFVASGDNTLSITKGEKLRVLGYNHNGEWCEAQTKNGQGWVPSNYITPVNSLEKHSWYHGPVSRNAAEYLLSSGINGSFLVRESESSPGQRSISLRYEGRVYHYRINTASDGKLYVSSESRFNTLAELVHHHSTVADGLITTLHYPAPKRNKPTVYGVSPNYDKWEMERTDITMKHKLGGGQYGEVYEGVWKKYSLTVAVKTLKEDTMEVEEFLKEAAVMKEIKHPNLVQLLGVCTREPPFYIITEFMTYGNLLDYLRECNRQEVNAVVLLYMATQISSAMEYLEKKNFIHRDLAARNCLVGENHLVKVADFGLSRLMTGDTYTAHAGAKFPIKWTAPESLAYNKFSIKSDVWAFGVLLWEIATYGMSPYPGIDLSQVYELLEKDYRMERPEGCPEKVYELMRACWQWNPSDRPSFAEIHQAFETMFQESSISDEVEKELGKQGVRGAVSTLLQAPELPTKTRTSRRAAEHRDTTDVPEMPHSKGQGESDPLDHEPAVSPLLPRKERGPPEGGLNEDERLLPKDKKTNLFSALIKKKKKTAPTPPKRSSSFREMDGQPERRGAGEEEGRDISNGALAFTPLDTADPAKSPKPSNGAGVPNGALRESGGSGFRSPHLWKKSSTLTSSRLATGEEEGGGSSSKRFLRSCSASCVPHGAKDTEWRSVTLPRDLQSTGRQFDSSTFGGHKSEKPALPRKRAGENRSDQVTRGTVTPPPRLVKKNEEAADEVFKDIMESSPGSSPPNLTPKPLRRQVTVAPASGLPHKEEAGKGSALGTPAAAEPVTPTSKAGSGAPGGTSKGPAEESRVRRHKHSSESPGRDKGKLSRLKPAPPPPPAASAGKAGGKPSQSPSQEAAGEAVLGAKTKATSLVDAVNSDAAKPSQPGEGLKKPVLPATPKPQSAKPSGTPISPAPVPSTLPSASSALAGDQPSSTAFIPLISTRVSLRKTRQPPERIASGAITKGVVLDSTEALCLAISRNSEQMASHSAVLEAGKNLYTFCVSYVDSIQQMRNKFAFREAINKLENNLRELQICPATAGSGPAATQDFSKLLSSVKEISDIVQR
Chain of Ephrin type-B receptor 1 (P54762 whole entry): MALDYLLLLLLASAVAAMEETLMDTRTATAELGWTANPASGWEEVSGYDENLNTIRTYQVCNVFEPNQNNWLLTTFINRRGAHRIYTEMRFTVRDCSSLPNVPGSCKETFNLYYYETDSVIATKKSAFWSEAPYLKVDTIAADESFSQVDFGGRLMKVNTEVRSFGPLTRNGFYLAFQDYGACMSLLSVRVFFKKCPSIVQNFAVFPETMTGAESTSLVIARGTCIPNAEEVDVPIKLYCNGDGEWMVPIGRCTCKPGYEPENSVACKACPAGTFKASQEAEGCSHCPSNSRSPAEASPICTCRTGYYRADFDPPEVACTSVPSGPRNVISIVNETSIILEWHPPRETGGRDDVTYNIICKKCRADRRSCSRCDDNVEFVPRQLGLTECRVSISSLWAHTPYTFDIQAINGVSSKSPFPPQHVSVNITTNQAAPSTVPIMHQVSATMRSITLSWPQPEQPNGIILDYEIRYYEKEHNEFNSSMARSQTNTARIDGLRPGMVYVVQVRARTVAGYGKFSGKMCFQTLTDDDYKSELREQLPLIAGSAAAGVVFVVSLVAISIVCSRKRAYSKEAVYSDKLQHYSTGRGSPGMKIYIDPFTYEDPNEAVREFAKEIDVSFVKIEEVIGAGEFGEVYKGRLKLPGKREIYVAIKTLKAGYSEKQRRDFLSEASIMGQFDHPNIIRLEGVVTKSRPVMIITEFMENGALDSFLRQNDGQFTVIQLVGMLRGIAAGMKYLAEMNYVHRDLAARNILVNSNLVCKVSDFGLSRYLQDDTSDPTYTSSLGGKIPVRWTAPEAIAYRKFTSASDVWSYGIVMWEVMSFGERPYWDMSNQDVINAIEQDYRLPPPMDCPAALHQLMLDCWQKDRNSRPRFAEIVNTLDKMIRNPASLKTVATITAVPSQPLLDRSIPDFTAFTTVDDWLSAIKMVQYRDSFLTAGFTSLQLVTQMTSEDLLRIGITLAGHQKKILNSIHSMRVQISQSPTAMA
Chain of Activin receptor type-1B (P36896 whole entry): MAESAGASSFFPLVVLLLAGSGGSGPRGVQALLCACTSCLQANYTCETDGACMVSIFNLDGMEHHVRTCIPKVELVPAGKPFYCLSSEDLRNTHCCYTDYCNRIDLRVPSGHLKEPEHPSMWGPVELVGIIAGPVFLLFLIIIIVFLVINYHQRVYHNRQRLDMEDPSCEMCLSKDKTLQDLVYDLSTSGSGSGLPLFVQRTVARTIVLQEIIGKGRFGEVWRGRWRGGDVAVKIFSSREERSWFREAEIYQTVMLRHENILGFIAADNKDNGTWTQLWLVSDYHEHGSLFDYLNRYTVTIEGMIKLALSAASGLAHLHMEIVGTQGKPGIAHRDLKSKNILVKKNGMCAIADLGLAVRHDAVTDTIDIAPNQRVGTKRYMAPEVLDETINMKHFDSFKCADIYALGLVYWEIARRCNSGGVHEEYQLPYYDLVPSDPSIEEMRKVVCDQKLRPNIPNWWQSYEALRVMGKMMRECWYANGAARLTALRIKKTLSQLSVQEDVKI
Chain of Ribosomal protein S6 kinase alpha-3 (P51812 whole entry): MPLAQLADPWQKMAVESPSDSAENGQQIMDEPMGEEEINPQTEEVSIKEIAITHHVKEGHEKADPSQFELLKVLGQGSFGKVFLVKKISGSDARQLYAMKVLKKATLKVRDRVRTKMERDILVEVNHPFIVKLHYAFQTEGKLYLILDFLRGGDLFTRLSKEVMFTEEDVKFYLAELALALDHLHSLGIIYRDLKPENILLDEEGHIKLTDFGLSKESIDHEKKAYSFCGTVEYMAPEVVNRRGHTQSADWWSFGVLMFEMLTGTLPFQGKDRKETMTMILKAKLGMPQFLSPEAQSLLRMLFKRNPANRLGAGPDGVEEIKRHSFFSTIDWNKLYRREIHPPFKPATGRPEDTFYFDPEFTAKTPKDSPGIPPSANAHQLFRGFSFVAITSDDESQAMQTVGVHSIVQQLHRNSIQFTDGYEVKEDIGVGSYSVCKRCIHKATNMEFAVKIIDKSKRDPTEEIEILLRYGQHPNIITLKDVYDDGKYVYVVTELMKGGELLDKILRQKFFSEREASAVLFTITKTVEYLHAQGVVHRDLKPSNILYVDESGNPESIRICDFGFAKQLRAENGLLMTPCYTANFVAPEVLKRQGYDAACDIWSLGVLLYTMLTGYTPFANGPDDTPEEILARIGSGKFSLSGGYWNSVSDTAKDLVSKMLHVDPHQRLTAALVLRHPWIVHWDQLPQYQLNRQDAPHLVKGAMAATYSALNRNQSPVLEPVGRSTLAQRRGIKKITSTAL
Chain of AMP-activated protein kinase (AMPK) alpha-1/beta-1/gamma-1 (P54619 whole entry): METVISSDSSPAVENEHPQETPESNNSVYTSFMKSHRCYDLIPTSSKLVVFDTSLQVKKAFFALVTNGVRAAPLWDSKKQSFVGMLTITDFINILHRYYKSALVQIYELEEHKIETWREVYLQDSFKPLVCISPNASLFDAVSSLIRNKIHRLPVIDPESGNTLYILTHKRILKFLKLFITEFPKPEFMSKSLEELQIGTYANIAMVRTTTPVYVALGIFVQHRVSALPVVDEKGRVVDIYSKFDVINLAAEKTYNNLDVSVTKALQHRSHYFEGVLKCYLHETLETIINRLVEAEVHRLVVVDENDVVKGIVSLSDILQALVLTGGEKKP
Chain of AMP-activated protein kinase (AMPK) alpha-1/beta-1/gamma-1 (Q9Y478 whole entry): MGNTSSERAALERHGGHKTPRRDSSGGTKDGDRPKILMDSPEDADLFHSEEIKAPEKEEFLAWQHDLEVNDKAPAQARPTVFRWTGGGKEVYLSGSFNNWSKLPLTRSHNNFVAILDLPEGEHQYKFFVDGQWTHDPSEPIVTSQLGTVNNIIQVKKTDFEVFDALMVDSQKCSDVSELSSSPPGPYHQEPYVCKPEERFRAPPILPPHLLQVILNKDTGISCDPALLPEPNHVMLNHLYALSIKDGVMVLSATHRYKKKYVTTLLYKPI
Chain of AMP-activated protein kinase (AMPK) alpha-1/beta-1/gamma-1 (Q13131 whole entry): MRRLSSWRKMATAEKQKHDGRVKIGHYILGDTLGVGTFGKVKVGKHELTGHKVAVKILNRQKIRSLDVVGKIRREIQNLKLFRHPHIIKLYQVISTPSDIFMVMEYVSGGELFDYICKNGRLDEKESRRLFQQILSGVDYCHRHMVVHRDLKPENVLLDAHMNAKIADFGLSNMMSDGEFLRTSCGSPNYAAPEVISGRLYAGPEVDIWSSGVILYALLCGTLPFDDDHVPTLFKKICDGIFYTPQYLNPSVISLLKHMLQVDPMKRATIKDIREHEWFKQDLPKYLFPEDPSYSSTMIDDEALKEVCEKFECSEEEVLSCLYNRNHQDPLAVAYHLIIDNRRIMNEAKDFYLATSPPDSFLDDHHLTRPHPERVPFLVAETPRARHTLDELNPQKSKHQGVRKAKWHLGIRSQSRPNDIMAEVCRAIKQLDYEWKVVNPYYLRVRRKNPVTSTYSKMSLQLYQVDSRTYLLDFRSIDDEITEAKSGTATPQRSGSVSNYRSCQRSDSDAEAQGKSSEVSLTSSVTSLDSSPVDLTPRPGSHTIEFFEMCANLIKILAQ
Chain of Death-associated protein kinase 3 (O43293 whole entry): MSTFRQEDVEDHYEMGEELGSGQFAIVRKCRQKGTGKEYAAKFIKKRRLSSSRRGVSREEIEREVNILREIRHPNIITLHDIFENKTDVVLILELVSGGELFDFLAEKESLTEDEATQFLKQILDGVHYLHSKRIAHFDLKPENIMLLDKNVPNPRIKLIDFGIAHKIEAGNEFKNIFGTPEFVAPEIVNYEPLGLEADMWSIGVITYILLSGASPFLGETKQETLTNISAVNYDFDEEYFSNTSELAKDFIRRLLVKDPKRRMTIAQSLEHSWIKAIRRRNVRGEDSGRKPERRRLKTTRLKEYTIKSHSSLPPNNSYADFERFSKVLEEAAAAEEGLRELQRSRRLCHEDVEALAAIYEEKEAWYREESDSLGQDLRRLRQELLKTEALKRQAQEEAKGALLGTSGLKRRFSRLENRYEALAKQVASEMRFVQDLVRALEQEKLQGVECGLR

SMILES: CSc1ccccc1Nc1nc(N2C3CCC2CC(N)C3)nc2c(NCC3CC3)ncnc12 (stereo not given)
- IC50 (Ketohexokinase [2]): 0.8 µM

SMILES: CSc1ccccc1Nc1nc(N2CCC3(CCNCC3)CC2)nc2c(NCC3CC3)ncnc12
- IC50 (Ketohexokinase [2]): 0.015 µM

SMILES: CSc1ccccc1Nc1nc(N2C[C@@H]3C[C@H]2CN3)nc2c(NCC3CC3)ncnc12
- IC50 (Ketohexokinase [2]): 4.6 µM

SMILES: CSc1ccccc1Nc1nc(N2CCC(N3CCNCC3)CC2)nc2c(NCC3CC3)ncnc12
- IC50 (Ketohexokinase [2]): 0.028 µM

SMILES: CSc1ccccc1Nc1nc(N2CCC[C@@H]3CNC[C@@H]32)nc2c(NCC3CC3)ncnc12
- IC50 (Ketohexokinase [2]): 0.44 µM

SMILES: CSc1ccccc1Nc1nc(N2CCC(N3CCN(C)CC3)CC2)nc2c(NCC3CC3)ncnc12
- IC50 (Ketohexokinase [2]): 0.03 µM

SMILES: CSc1ccccc1Nc1nc(N2CCN(C3CCNCC3)CC2)nc2c(NCC3CC3)ncnc12
- IC50 [3]: < 10 µM
- IC50 [4]: < 10 µM
- IC50 (Activin receptor type-1B): < 10 µM
- IC50 [5]: < 10 µM
- IC50 [6]: < 10 µM
- IC50 [7]: < 10 µM
- IC50 [8]: < 10 µM
- IC50 [9]: < 10 µM
- IC50 (Ephrin type-B receptor 1): < 10 µM
- IC50 [10]: < 10 µM
- IC50 [11]: < 10 µM
- IC50 [12]: < 10 µM
- IC50 [13]: < 10 µM
- IC50 [14]: < 10 µM
- IC50 [15]: < 10 µM
- IC50 [16]: < 10 µM
- IC50 [17]: < 10 µM
- IC50 [18]: < 10 µM
- IC50 [19]: < 10 µM
- IC50 (Aurora kinase A): < 10 µM
- IC50 [20]: < 10 µM
- IC50 [21]: < 10 µM
- IC50 (Ketohexokinase [2]): 0.048 µM
- IC50 [22]: < 10 µM
- IC50 [23]: < 10 µM
- IC50 [24]: < 10 µM
- IC50 [25]: < 10 µM

SMILES: CSc1ccccc1Nc1nc(N2CCNc3ccccc3C2)nc2c(NCC3CC3)ncnc12
- IC50 (Ketohexokinase [2]): 6 µM

SMILES: CSc1ccccc1Nc1nc(N2CCC(C3CCNCC3)CC2)nc2c(NCC3CC3)ncnc12
- IC50 (Ketohexokinase [2]): 0.05 µM

SMILES: CSc1ccccc1Nc1nc(N(C)CC2CCNCC2)nc2c(NCC3CC3)ncnc12
- IC50 (Ketohexokinase [2]): 0.066 µM

SMILES: CSc1ccccc1Nc1nc(N2CCC3(CCNC3)C2)nc2c(NCC3CC3)ncnc12 (stereo not given)
- IC50 (Ketohexokinase [2]): 0.043 µM

Results, then the molecule that gave them:

- IC50 (Ketohexokinase [1]): < 0.5 µM
SMILES: CSc1ccccc1Nc1nc(N2CCNCC2)nc2c(NCC3CC3)ncnc12

- IC50 (Ketohexokinase [2]): 0.058 µM
SMILES: CSc1ccccc1Nc1nc(N2CCNC[C@H]2C)nc2c(NCC3CC3)ncnc12

- IC50 (Ketohexokinase [2]): 0.3 µM
SMILES: CSc1ccccc1Nc1nc(N2C[C@@H]3CCCN[C@@H]3C2)nc2c(NCC3CC3)ncnc12

- IC50 (Ketohexokinase [2]): 0.04 µM
SMILES: CSc1ccccc1Nc1nc(N2CCNC(C)(C)C2)nc2c(NCC3CC3)ncnc12

- IC50 (Ketohexokinase [1]): 0.15 µM
- IC50 (Ketohexokinase [2]): 0.002 µM
SMILES: CSc1ccccc1Nc1nc(N2CCC3(CNC3)C2)nc2c(NCC3CC3)ncnc12

- IC50 (Ketohexokinase [2]): 0.11 µM
SMILES: CSc1ccccc1Nc1nc(N2C[C@@H](C)N[C@@H](C)C2)nc2c(NCC3CC3)ncnc12

- IC50 (Ketohexokinase [2]): 0.07 µM
SMILES: CSc1ccccc1Nc1nc(N2CCNC(C)C2)nc2c(NCC3CC3)ncnc12 (stereo not given)
